As a reminder, the inhibition is how much of the control response was suppressed.

From US10626106B2, “Substituted pyrrolidine amides I” (Gruenenthal GmbH, priority 2017, dated 2020) come the findings set out here.

The first assay deals with T1, Human Glucocorticoid Receptor (hGR) (Homo sapiens, UniProt P04150).
T1 construct: the resultant supernatant (=cytosol of IM9 cells) was centrifuged at 103,000 g for 60 minutes; host or cells: IM9 human lymphoblast cell line (cytosol fraction)
T1 sequence (P04150 1-777): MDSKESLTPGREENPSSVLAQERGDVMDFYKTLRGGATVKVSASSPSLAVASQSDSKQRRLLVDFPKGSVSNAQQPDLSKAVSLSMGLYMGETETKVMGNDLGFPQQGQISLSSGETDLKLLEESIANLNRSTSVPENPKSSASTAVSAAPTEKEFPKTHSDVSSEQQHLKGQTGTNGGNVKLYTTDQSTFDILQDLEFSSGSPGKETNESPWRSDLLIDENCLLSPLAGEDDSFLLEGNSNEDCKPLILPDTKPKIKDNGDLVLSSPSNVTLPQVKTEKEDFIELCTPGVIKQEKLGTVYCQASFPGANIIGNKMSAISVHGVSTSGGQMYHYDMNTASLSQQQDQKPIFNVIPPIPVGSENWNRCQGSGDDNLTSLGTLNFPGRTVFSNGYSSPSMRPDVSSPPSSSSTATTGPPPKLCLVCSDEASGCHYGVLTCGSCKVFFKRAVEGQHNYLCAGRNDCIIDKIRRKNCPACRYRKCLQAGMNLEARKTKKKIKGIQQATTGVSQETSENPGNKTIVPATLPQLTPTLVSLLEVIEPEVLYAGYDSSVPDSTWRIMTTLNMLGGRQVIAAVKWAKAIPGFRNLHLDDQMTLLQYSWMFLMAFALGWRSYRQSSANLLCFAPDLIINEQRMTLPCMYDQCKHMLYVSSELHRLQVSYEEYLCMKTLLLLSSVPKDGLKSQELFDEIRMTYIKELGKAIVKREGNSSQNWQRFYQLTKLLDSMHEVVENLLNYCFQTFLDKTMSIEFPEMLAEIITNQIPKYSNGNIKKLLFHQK
As to the kind of experiment: Human Glucocorticoid Receptor (hGR) Ligand-Binding Assay (competitive 3H-dexamethasone binding, IM9 cytosol). The conditions noted are these: compound at 1 μM; competition with 3H-dexamethasone; cytosol of IM9 cells; read-out: % inhibition hGR at 1 μM. The source says:
Human Glucocorticoid Receptor (hGR) Ligand-Binding Assay
Potential selective glucocorticoid receptor modulators of this intervention can be tested for their binding affinity at the glucocorticoid receptor using the binding assay described below.
Preferably, the glucocortitcoid receptor extracted from cytosol of IM9 cells is used for competitive radioligand binding assays to calculate the IC50 values and binding affinity (Ki value) of the compounds according to the present invention. Preferably, a fixed concentration of the radioligand 3H-dexamethasone and a range of concentrations of compounds according to the present invention (as unlabeled competitors of dexamethasone) are mixed with the extracted glucocorticoid receptor in order to measure the potency/affinity with which they compete for the binding of the radioligand. Preferably, by using competition curves the IC50 which is the concentration of competing ligand that displaces 50% of the specific binding of the radioligand is determined. Finally this IC50 value is converted to a Ki value.
The human lymphoblast cell line IM9 (ATCC, Bethesda, Md.) were cultivated in RPMI 1640 media containing 10% fetal bovine serum, penicillin (100 U/ml), streptomycin (100 μg/ml), and 2 mM L-glutamine at […] and 7% CO2 in a humidified incubator. Cells were centrifuged for 10 minutes at 1500 g and were washed in PBS and repelleted. Cell were then resuspended in homogenization buffer consisting of: 10 mM TES, 10 mM sodium molybdate, 1 mM EDTA, pH 7.4, 20 mM 2-mercaptoethanol, and 10% glycerol. Disruption of the cells was performed by nitrogen cavitation using 2×15 minutes at 600 to 750 psi nitrogen in a N2 cavitator at 0° C. The cell preparation was then centrifuged at 27,000 g for 15 minutes, and the resultant supernatant (=cytosol of IM9 cells) was centrifuged at 103,000 g for 60 minutes at 4° C. The amount of protein in the supernatant fraction was determined using a BCA assay kit and aliquots were snap frozen in a dry ice-acetone bath and stored at −70° C. Competitive binding assays were done in duplicate in homogenization buffer with a total volume of 200 μl. To this end, 1 mg of IM9 cytosol, 0.05 μCi (1.5 nM) of 3H-dexamethasone […] and compounds according to the present invention (=unlabeled competitors of dexamethasone; range of concentrations) were mixed. The reaction was stopped after incubation at 0° C. for 16 to 18 hours by the addition of 100 μl of a charcoal-dextran mixture (2% activated charcoal, 0.5% dextran in 10 mM Tris, 1 mM EDTA, pH 7.4). Another incubation step at 0° C. for 10 minutes followed before the samples were centrifuged for 5 minutes at 8200 g. 100 μl of the supernatant) was finally assayed for radioactivity by liquid scintillationspectrometry, and the IC50 values were determined graphically and were converted to Ki values.
`Cc1ccccc1[C@@H]1[C@@H](NC(=O)C2CC2)CC(=O)N1c1ccc2c(cnn2-c2ccc(=O)n(C)c2)c1` [Example 41, N-((2R,3S)-1-(1-(1-methyl-6-oxo-1,6-dihydropyridin-3-yl)-1H-indazol-5-yl)-5-oxo-2-(o-tolyl)pyrrolidin-3-yl)cyclopropanecarboxamide]: the inhibition at 1 µM fell in the range of 40 to 60%.

`Cn1ccc(C(=O)N[C@H]2CC(=O)N(c3ccc4c(cnn4-c4ccc(=O)n(C)c4)c3)[C@@H]2c2ccccc2)n1` [Example 45, 1-methyl-N-[(2R,3S)-1-[1-(1-methyl-6-oxo-3-pyridyl)indazol-5-yl]-5-oxo-2-phenyl-pyrrolidin-3-yl]pyrazole-3-carboxamide]: the inhibition at 1 µM was in the range of 60 to 85%.

As for `Cc1cnc(C(=O)N[C@H]2CC(=O)N(c3ccc4c(cnn4-c4ccc(=O)n(C)c4)c3)[C@@H]2c2ccccc2)s1` (relative stereo) [Example 13, 5-methyl-N-(trans-1-(1-(1-methyl-6-oxo-1,6-dihydropyridin-3-yl)-1H-indazol-5-yl)-5-oxo-2-phenylpyrrolidin-3-yl)thiazole-2-carboxamide], the inhibition at 1 µM is > 85%.

Consider `Cn1cc(-n2ncc3cc(N4C(=O)C[C@H](NC(=O)C(C)(F)F)[C@H]4c4ccccc4F)ccc32)ccc1=O` [Example 6, 2,2-difluoro-N-((2R,3S)-2-(2-fluorophenyl)-1-(1-(1-methyl-6-oxo-1,6-dihydropyridin-3-yl)-1H-indazol-5-yl)-5-oxopyrrolidin-3-yl)propanamide], for which the inhibition at 1 µM was > 85%.

Turning to `COc1ccc(-n2ncc3cc(N4C(=O)C[C@H](NC(=O)C(C)(F)F)C4c4ccccc4)ccc32)cn1` (stereo in doubt) [Example 22, trans-2,2-difluoro-N-(1-(1-(6-methoxypyridin-3-yl)-1H-indazol-5-yl)-5-oxo-2-phenylpyrrolidin-3-yl)propanamide], the inhibition at 1 µM was in the range of 60 to 85%.

For the molecule `Cn1cc(-n2ncc3cc(N4C(=O)C[C@H](NC(=O)c5cocn5)[C@H]4c4ccccc4)ccc32)ccc1=O` [Example 50, N-[(2R,3S)-1-[1-(1-methyl-6-oxo-3-pyridyl)indazol-5-yl]-5-oxo-2-phenyl-pyrrolidin-3-yl]oxazole-4-carboxamide], the inhibition at 1 µM lay in the range of 60 to 85%.

Regarding `Cn1cc(-n2ncc3cc(N4C(=O)C[C@H](NC(=O)C(C)(F)F)C4c4ccc5c(c4)OCCO5)ccc32)ccc1=O` (stereo in doubt) [Example 3, trans-2,2-difluoro-N-(5-oxo-2-(2,3-dihydrobenzo[b][1,4]dioxin-6-yl)-1-(1-(1-methyl-6-oxo-1,6-dihydropyridin-3-yl)-1H-indazol-5-yl)pyrrolidin-3-yl)propanamide], the inhibition at 1 µM was > 85%.

For `Cn1ccc(Cn2ncc3cc(N4C(=O)C[C@H](NC(=O)C(C)(F)F)C4c4ccccc4)ccc32)n1` (stereo in doubt) [Example 32, trans-2,2-difluoro-N-(1-(1-((1-methyl-1H-pyrazol-3-yl)methyl)-1H-indazol-5-yl)-5-oxo-2-phenylpyrrolidin-3-yl)propanamide], the inhibition at 1 µM was 60 to 85%.

Turning to `Cn1cc(Cn2ncc3cc(N4C(=O)C[C@H](NC(=O)C(C)(F)F)C4c4ccccc4)ccc32)ccc1=O` (stereo in doubt) [Example 34, trans-2,2-difluoro-N-(1-(1-((1-methyl-6-oxo-1,6-dihydropyridin-3-yl)methyl)-1H-indazol-5-yl)-5-oxo-2-phenylpyrrolidin-3-yl)propanamide], the inhibition at 1 µM is 40 to 60%.

For `Cc1nc(C(=O)N[C@H]2CC(=O)N(c3ccc4c(cnn4-c4ccc(=O)n(C)c4)c3)[C@@H]2c2ccccc2)no1` [Example 51, 5-methyl-N-[(2R,3S)-1-[1-(1-methyl-6-oxo-3-pyridyl)indazol-5-yl]-5-oxo-2-phenyl-pyrrolidin-3-yl]-1,2,4-oxadiazole-3-carboxamide], the inhibition at 1 µM was > 85%.

For `Cn1cc(-n2ncc3cc(N4C(=O)C[C@H](NC(=O)C5(F)CC5)[C@H]4c4ccccc4)ccc32)ccc1=O` [Example 18, 1-fluoro-N-((2R,3S)-1-(1-(1-methyl-6-oxo-1,6-dihydropyridin-3-yl)-1H-indazol-5-yl)-5-oxo-2-phenylpyrrolidin-3-yl)cyclopropanecarboxamide], the inhibition at 1 µM was > 85%.

Turning to `Cn1ccc(Cn2ncc3cc(N4C(=O)C[C@H](NC(=O)C(C)(F)F)C4c4ccccc4)ccc32)cc1=O` (stereo in doubt) [Example 38, trans-2,2-difluoro-N-(1-(1-((1-methyl-2-oxo-1,2-dihydropyridin-4-yl)methyl)-1H-indazol-5-yl)-5-oxo-2-phenylpyrrolidin-3-yl)propanamide], the inhibition at 1 µM is 60 to 85%.

On to `Cn1cc(-n2ncc3cc(N4C(=O)C[C@H](NC(=O)C(C)(F)F)[C@H]4c4cccc(F)c4)ccc32)ccc1=O` [Example 5, 2,2-difluoro-N-((2R,3S)-2-(3-fluorophenyl)-1-(1-(1-methyl-6-oxo-1,6-dihydropyridin-3-yl)-1H-indazol-5-yl)-5-oxopyrrolidin-3-yl)propanamide], for which the inhibition at 1 µM is > 85%.

Regarding `COc1cc([C@@H]2[C@@H](NC(=O)C(C)(F)F)CC(=O)N2c2ccc3c(cnn3-c3ccc(=O)n(C)c3)c2)ccn1` [Example 42, 2,2-difluoro-N-((2R,3S)-2-(2-methoxypyridin-4-yl)-1-(1-(1-methyl-6-oxo-1,6-dihydropyridin-3-yl)-1H-indazol-5-yl)-5-oxopyrrolidin-3-yl)propanamide], the inhibition at 1 µM lay within 60 to 85%.

In the case of `COc1cc([C@@H]2[C@@H](NC(=O)C(C)(F)F)CC(=O)N2c2ccc3c(cnn3-c3ccc(=O)n(C)c3)c2)ccc1F` [Example 15, 2,2-difluoro-N-((2R,3S)-2-(4-fluoro-3-methoxyphenyl)-1-(1-(1-methyl-6-oxo-1,6-dihydropyridin-3-yl)-1H-indazol-5-yl)-5-oxopyrrolidin-3-yl)propanamide], the inhibition at 1 µM is 60 to 85%.

Still in this assay, the particulars now being: read-out: % inhibition hGR at 1 μM.
Consider `CC(F)(F)C(=O)N[C@H]1CC(=O)N(c2ccc3c(cnn3-c3ccc(F)cn3)c2)C1c1ccccc1` (stereo in doubt) [Example 9, trans-2,2-difluoro-N-(1-(1-(5-fluoropyridin-2-yl)-1H-indazol-5-yl)-5-oxo-2-phenylpyrrolidin-3-yl)propanamide], for which the inhibition at 1 µM was > 85%.

Consider `Cn1cc(-n2ncc3cc(N4C(=O)C[C@H](NC(=O)C(C)(F)F)[C@H]4c4ccccc4)ccc32)ccc1=O` [Example 4, 2,2-difluoro-N-((2R,3S)-1-(1-(1-methyl-6-oxo-1,6-dihydropyridin-3-yl)-1H-indazol-5-yl)-5-oxo-2-phenylpyrrolidin-3-yl)propanamide], for which the inhibition at 1 µM was > 85%.

Turning to `Cc1cc(-n2ncc3cc(N4C(=O)C[C@H](NC(=O)C(C)(F)F)C4c4ccccc4)ccc32)ccn1` (stereo in doubt) [Example 25, trans-2,2-difluoro-N-(1-(1-(2-methylpyridin-4-yl)-1H-indazol-5-yl)-5-oxo-2-phenylpyrrolidin-3-yl)propanamide], the inhibition at 1 µM is > 85%.
